This is an account of results in US5955423A (priority 1995, dated 1999).

“And” between values parts separate entries of the source, which are not always exact repeats. Equal entries are not always repeated. Where two headings read alike, the source gives them in different places.

The test system of series [1] is LoVo (human colon-carcinoma) cell line. The series can be described thus: Cytotoxicity against LoVo cell line. Type of series: cell-based.
Series [2] has as its system murine leukemia (L1210 or P388), murine solid tumor, human solid tumor and low malignancy fibroblast (LML) cells. Particulars: for Differential in Zone Units, Corbett Assay: μg/disk as for E3; for Type of Cytotoxicity, Corbett Assay: μg/disk: 1 12.5, 2 25, 3 25, 4 20, 5 2.9, 6 250, 8 30, 5-FU 2.5, VP-16 5, taxol 0.2, ^c selective against drug-sensitive and drug-resistant cell lines, ^d drug-sensitive cell lines only.

The subject of series [3] is SKOV3 (human ovarian carcinoma) cell line. The series can be described thus: Cytotoxicity against SKOV3 cell line. Particulars: Table 2.
Series [4] concerns KB (human nasopharyngeal carcinoma) cell line. The series can be described thus: Cytotoxicity against KB cell line. Type of series: cell-based.
The test system of series [5] is Panc 03 (pancreatic ductal adenocarcinoma #03, P03). Particulars: SC P03.
Experimental: (§1) Gross log kill is defined as T-C/3.2 Td where T is the median time in days for the tumors of the treated group to reach 750 mg, C is the median time in days for the tumors of the control group to reach 750 mg, and Td is the tumor volume doubling time.
In series [6] the test system is murine and human tumors implanted in mice. Particulars: the one trial that has been run to date.
Experimental: as §1
Where [7] appears, read: Exp # 1843, 4 inj. IV, 28/5 mg/kg TD.
Where [8] appears, read: Exp # 1878, 9 inj. IV, 82 mg/kg TD.
Setting [9] is: Exp # 1813, 9 inj. IV, 27 mg/kg TD.
[10] abbreviates: Exp # 1843, 7 inj. IV, 23 mg/kg TD.

`COc1ccc(C[C@H]2NC(=O)/C=C/C[C@@H]([C@H](C)[C@H]3O[C@@H]3c3ccccc3)OC(=O)[C@H](CC(C)C)OC(=O)[C@H](C)CNC2=O)cc1` [Cryptophycin 2]: the “LoVo IC50” value in series [1] (Table 1) is 0.0002 ng/mL. Also, the “LoVo IC50” value in series [1] (Table 2) is given as 0.021 ng/mL. Moreover, in series [2], the “Differential in Zone Units, Corbett Assay” value (shortened to “Differential in Zone Units”) was above 400 Zone Units and the “Type of Cytotoxicity, Corbett Assay” value was “E/T”. Also, the “SKOV3 IC50” value in series [3] is recorded as 0.18 ng/mL.

For orientation: T/C means the result in the treated group divided by that in the control group, in per cent. Turning to `COc1ccc(C[C@H]2NC(=O)/C=C/C[C@@H]([C@H](C)/C=C/c3ccccc3)OC(=O)[C@H](CC(C)C)OC(=O)[C@H](C)CNC2=O)cc1Cl` [Cryptophycin 3], the “KB IC50” value in series [4] (Table 1) is listed as 0.3 ng/mL. Further, the “LoVo IC50” value in series [1] (Table 1) was 0.5 ng/mL. Also, in series [1] (Table 2), the “LoVo IC50” value was 0.6 ng/mL. In addition, in series [2], the “Differential in Zone Units” value is above 400 Zone Units and the “Type of Cytotoxicity, Corbett Assay” value is reported as “E/T”. In series [5] (setting [7]), the “% Body Wt. Loss at Nadir” value is given as -9%, the Cures is 0/5, the “Log Kill” value is on record as below 1 and the T/C is given as 54%. In addition, the “SKOV3 IC50” value in series [3] turned out to be 2.8 ng/mL.

Take `COc1ccc(C[C@H]2NC(=O)/C=C/C[C@@H]([C@H](C)/C=C/c3ccccc3)OC(=O)[C@H](CC(C)C)OC(=O)[C@H](C)CNC2=O)cc1` [Cryptophycin 4]: in series [1] (Table 2), the “LoVo IC50” value amounted to 2.5 ng/mL. In addition, in series [2], the “Differential in Zone Units” value is given as above 400 Zone Units and the “Type of Cytotoxicity, Corbett Assay” value was “E/T”. For the same molecule, in series [3], the “SKOV3 IC50” value is given as 21 ng/mL.

Consider `COC(=O)[C@H](C)CNC(=O)[C@@H](Cc1ccc(OC)c(Cl)c1)NC(=O)/C=C/C[C@@H]1O[C@@H](c2ccccc2)[C@H](O)[C@H]1C` [Cryptophycin 6], for which the “KB IC50” value in series [4] (Table 1) was at least 100 ng/mL. Also, the “LoVo IC50” value in series [1] (Table 1) is at least 100 ng/mL.

With `COc1ccc(CC(NC(=O)C=CCC2OC(c3ccccc3)C(O)C2C)C(=O)O)cc1Cl` (centres unmarked) [Cryptophycin 7], the “KB IC50” value in series [4] (Table 1) was at least 750 ng/mL. For the same molecule, in series [1] (Table 1), the “LoVo IC50” value was at least 480 ng/mL.

For the molecule `COc1ccc(CC2NC(=O)C=CCC(C(C)C(O)C(OC)c3ccccc3)OC(=O)C(CC(C)C)OC(=O)C(C)CNC2=O)cc1Cl` (centres unmarked) [Cryptophycin 9], the “KB IC50” value in series [4] (Table 1) is 15 ng/mL.

As for `COc1ccc(C[C@@H](NC(=O)/C=C/C[C@H](O)[C@H](C)[C@@H](O)[C@@H](OC)c2ccccc2)C(=O)NC[C@@H](C)C(=O)O)cc1Cl` [Cryptophycin 10], in series [4] (Table 1), the “KB IC50” value was at least 100 ng/mL. In addition, the “LoVo IC50” value in series [1] (Table 1) is on record as at least 100 ng/mL.

Take `COc1ccc(C[C@@H](NC(=O)/C=C/C[C@@H]2O[C@@H](c3ccccc3)[C@H](O)[C@H]2C)C(=O)NC[C@@H](C)C(=O)O)cc1Cl` [Cryptophycin 12]: the figures for the “KB IC50” value in series [4] (Table 1) and in series [4] (Table 2) were at least 100 ng/mL and 18 ng/mL, respectively.

`COc1ccc(CC(NC(=O)C=CCC(O)C(C)C=Cc2ccccc2)C(=O)NCC(C)C(=O)O)cc1Cl` (centres unmarked) [Cryptophycin 14]: in series [4] (Table 1), the “KB IC50” value is 1.8 ng/mL.

For `COc1ccc(C[C@H]2NC(=O)/C=C/C[C@@H]([C@H](C)[C@@H](O)[C@@H](O)c3ccccc3)OC(=O)[C@H](CC(C)C)OC(=O)[C@H](C)CNC2=O)cc1Cl` [Cryptophycin 15], the “SKOV3 IC50” value in series [3] is 12 ng/mL.

As for `CC(C)C[C@@H]1OC(=O)[C@H](C)CNC(=O)[C@@H](Cc2ccc(O)c(Cl)c2)NC(=O)/C=C/C[C@@H]([C@H](C)[C@H]2O[C@@H]2c2ccccc2)OC1=O` [Cryptophycin 16], in series [4] (Table 2), the “KB IC50” value came to 0.08 ng/mL. Moreover, in series [5] (setting [8]), the “% Body Wt. Loss at Nadir” value is given as -1%, the Cures is recorded as 0/5, the “Log Kill” value was “None” and the T/C was determined as 89%. For the same molecule, the “SKOV3 IC50” value in series [3] is 0.64 ng/mL.

With `CC(C)CC1OC(=O)C(C)CNC(=O)C(Cc2ccc(O)c(Cl)c2)NC(=O)C=CCC(C(C)C=Cc2ccccc2)OC1=O` (centres unmarked) [Cryptophycin 17], in series [4] (Table 2), the “KB IC50” value amounted to 4.7 ng/mL. Further, the “LoVo IC50” value in series [1] (Table 2) turned out to be 5.9 ng/mL. Besides, the “SKOV3 IC50” value in series [3] is 11 ng/mL.

Consider `CCC(C)C1OC(=O)C(C)CNC(=O)C(Cc2ccc(OC)c(Cl)c2)NC(=O)C=CCC(C(C)C=Cc2ccccc2)OC1=O` (centres unmarked) [Cryptophycin 18], for which, in series [1] (Table 2), the “LoVo IC50” value was found to be 4.5 ng/mL. For the same molecule, the “SKOV3 IC50” value in series [3] was 23 ng/mL.

`COc1ccc(CC2NC(=O)C=CCC(C(C)C=Cc3ccccc3)OC(=O)C(C(C)C)OC(=O)C(C)CNC2=O)cc1Cl` (centres unmarked) [Cryptophycin 19]: the “KB IC50” value in series [4] (Table 2) is given as 9.8 ng/mL. In addition, the “SKOV3 IC50” value in series [3] was 41 ng/mL.

For `COc1ccc(C[C@H]2NC(=O)/C=C/C[C@@H]([C@H](C)[C@H]3O[C@@H]3c3ccccc3)OC(=O)[C@H](CC(C)C)OC(=O)CCNC2=O)cc1Cl` [Cryptophycin 21], the “LoVo IC50” value in series [1] (Table 2) is given as 0.0003 ng/mL. In series [5] (setting [9]), the “% Body Wt. Loss at Nadir” value is on record as -11%, the Cures is reported as 0/5, the “Log Kill” value is listed as “None” and the T/C is reported as 61%. Besides, the dead in series [5] (setting [9]) is 1/5. For the same molecule, the “SKOV3 IC50” value in series [3] is recorded as 0.029 ng/mL.

In the case of `COc1ccc(C[C@H]2NC(=O)/C=C/C[C@@H]([C@H](C)[C@H]3O[C@@H]3c3ccccc3)OC(=O)[C@H](CC(C)C)OC(=O)CCNC2=O)cc1` [Cryptophycin 24], the “KB IC50” value in series [4] (Table 2) stood at 0.12 ng/mL. Further, in series [1] (Table 2), the “LoVo IC50” value is recorded as 0.095 ng/mL. The “SKOV3 IC50” value in series [3] amounted to 0.3 ng/mL.

As to `COc1ccc(C[C@H]2NC(=O)CC(C[C@H](O)[C@H](C)/C=C/c3ccccc3)OC(=O)[C@H](CC(C)C)OC(=O)[C@H](C)CNC2=O)cc1Cl` (some centres unmarked) [Cryptophycin 26], the “KB IC50” value in series [4] (Table 2) was 19 ng/mL. Also, in series [1] (Table 2), the “LoVo IC50” value is reported as 9.8 ng/mL. The “SKOV3 IC50” value in series [3] stood at 95 ng/mL.

`COc1ccc(C[C@H]2NC(=O)/C=C/C[C@@H](C/C=C/c3ccccc3)OC(=O)[C@H](CC(C)C)OC(=O)[C@H](C)CNC2=O)cc1Cl` [Cryptophycin 28]: the “KB IC50” value in series [4] (Table 2) turned out to be 1.5 ng/mL. In addition, the “LoVo IC50” value in series [1] (Table 2) stood at 0.75 ng/mL. Besides, the “SKOV3 IC50” value in series [3] is 6.1 ng/mL.

On to `COc1ccc(C[C@H]2NC(=O)/C=C/C[C@@H]([C@H](C)/C=C/c3ccccc3)OC(=O)[C@H](CC(C)C)OC(=O)CCNC2=O)cc1Cl` [Cryptophycin 29], for which, in series [1] (Table 2), the “LoVo IC50” value is recorded as 0.49 ng/mL. In addition, the “SKOV3 IC50” value in series [3] is recorded as 3.4 ng/mL.

Consider `COc1ccc(C[C@H]2NC(=O)C[C@H](O)C[C@@H]([C@H](C)/C=C/c3ccccc3)OC(=O)[C@H](CC(C)C)OC(=O)[C@H](C)CNC2=O)cc1Cl` [Cryptophycin 30], for which the “KB IC50” value in series [4] (Table 2) is 11 ng/mL.

On to `COc1c(Cl)cc(CC2NC(=O)C=CCC(C(C)C3OC3c3ccccc3)OC(=O)C(CC(C)C)OC(=O)C(C)CNC2=O)cc1Cl` (centres unmarked) [Cryptophycin 31], for which the “KB IC50” value in series [4] (Table 2) was determined as 0.53 ng/mL. The “LoVo IC50” value in series [1] (Table 2) turned out to be 0.062 ng/mL. Moreover, the “SKOV3 IC50” value in series [3] was found to be 1.9 ng/mL.

Regarding `COc1ccc(CC2NC(=O)CCCC(C(C)C3OC3c3ccccc3)OC(=O)C(CC(C)C)OC(=O)C(C)CNC2=O)cc1Cl` (centres unmarked) [Cryptophycin 35], the “KB IC50” value in series [4] (Table 2) was 0.055 ng/mL. Moreover, in series [5] (setting [10]), the “% Body Wt. Loss at Nadir” value was -2%, the Cures was 0/5, the “Log Kill” value is 1.3 and the T/C is 11%. In series [6], the “in vivo activity” value was “Good in vivo activity”. In addition, the “SKOV3 IC50” value in series [3] turned out to be 0.092 ng/mL.

For `COc1ccc(CC2NC(=O)C=CCC(CC3OC3c3ccccc3)OC(=O)C(CC(C)C)OC(=O)C(C)CNC2=O)cc1Cl` (centres unmarked) [Cryptophycin 40], in series [4] (Table 2), the “KB IC50” value stood at 9.0 ng/mL. Besides, the “LoVo IC50” value in series [1] (Table 2) was 1.0 ng/mL.

In the case of `CCCC1OC(=O)C(C)CNC(=O)C(Cc2ccc(OC)c(Cl)c2)NC(=O)C=CCC(C(C)C=Cc2ccccc2)OC1=O` (centres unmarked) [Cryptophycin 49], in series [3], the “SKOV3 IC50” value turned out to be 1.1 ng/mL.

Take `CCC[C@@H]1OC(=O)[C@H](C)CNC(=O)[C@@H](Cc2ccc(OC)c(Cl)c2)NC(=O)/C=C/C[C@@H]([C@H](C)[C@H]2O[C@@H]2c2ccccc2)OC1=O` [Cryptophycin 50]: in series [3], the “SKOV3 IC50” value was 0.2 ng/mL.

For the molecule `CC[C@H](C)[C@@H]1OC(=O)[C@H](C)CNC(=O)[C@@H](Cc2ccc(OC)c(Cl)c2)NC(=O)/C=C/C[C@@H]([C@H](C)[C@H]2O[C@@H]2c2ccccc2)OC1=O` [Cryptophycin 54], in series [4] (Table 2), the “KB IC50” value was determined as 0.80 ng/mL. Besides, in series [1] (Table 2), the “LoVo IC50” value is 2.2 ng/mL. For the same molecule, the “SKOV3 IC50” value in series [3] turned out to be 2.2 ng/mL.

For `COc1cc([C@@H]2c3cc4c(cc3[C@@H](O[C@@H]3O[C@@H]5CO[C@@H](C)O[C@H]5[C@H](O)[C@H]3O)[C@H]3COC(=O)[C@H]23)OCO4)cc(OC)c1O` [VP-16, etoposide, reference compound], the “Differential in Zone Units” value in series [2] was 350 Zone Units and 530 Zone Units.
